Test results from patent publication US8501936B2 (priority 2009, dated 2013).
pIC50: −log10 of the molar value.

Columns and labels:
[1] = target: human FAK (Homo sapiens (Human), UniProt Q05397); conditions: read-out: FAK IC50
[2] = target: human JAK2 (Homo sapiens (Human), UniProt O60674); conditions: read-out: JAK2 IC50
Chain of human JAK2 (O60674 815-1132): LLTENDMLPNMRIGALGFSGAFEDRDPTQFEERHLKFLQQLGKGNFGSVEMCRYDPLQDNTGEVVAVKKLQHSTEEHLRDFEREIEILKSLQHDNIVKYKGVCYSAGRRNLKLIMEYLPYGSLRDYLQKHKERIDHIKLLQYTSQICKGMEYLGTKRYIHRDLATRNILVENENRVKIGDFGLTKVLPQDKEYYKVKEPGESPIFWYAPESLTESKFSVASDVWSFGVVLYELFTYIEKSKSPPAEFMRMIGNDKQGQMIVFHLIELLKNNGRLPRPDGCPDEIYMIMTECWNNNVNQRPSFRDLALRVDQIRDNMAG

Chain of human FAK (Q05397 whole entry): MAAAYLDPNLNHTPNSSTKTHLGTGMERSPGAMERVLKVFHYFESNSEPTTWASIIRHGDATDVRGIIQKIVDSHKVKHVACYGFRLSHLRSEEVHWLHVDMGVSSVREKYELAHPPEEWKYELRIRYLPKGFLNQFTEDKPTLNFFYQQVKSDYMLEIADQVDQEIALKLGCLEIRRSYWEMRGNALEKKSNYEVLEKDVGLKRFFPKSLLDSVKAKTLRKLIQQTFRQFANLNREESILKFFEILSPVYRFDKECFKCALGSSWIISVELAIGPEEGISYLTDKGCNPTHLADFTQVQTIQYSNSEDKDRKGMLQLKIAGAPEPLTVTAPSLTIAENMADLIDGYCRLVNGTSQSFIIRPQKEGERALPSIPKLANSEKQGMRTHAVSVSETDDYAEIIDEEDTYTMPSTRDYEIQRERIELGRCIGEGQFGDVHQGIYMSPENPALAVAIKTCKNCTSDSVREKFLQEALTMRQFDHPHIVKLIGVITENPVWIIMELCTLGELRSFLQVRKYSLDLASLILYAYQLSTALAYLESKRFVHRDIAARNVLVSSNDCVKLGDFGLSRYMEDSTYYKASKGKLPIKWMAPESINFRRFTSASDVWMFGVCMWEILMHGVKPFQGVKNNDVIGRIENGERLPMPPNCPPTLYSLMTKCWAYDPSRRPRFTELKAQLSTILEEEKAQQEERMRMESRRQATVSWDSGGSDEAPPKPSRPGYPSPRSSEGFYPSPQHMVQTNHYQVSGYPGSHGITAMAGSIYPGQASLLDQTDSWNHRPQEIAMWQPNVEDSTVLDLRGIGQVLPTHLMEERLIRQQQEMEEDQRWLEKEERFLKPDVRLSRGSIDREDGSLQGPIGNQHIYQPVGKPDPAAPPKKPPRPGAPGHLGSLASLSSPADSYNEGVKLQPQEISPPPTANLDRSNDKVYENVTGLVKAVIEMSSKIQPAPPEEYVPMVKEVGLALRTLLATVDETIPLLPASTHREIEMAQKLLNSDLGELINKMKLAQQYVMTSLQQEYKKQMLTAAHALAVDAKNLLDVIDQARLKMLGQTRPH

| SMILES | pIC50 [1] | pIC50 [2] |
| --- | --- | --- |
| CS(=O)(=O)c1ccc(-c2cccn3nc(Nc4ccc5c(c4)CCNCC5)nc23)c(OCC(F)F)c1 [Example 370, {8-[2-(2,2-Difluoro-ethoxy)-4-methanesulfonyl-phenyl]-[1,2,4]triazolo[1,5-a]pyridin-2-yl}-(2,3,4,5-tetrahydro-1H-3-benzazepin-7-yl)-amine] | 6.00 | 7.21 |
| CS(=O)(=O)c1ccc(OCC(F)F)c(-c2cccn3nc(Nc4ccc5c(c4)CCNCC5)nc23)c1 [Example 372, {8-[2-(2,2-Difluoro-ethoxy)-5-methanesulfonyl-phenyl]-[1,2,4]triazolo[1,5-a]pyridin-2-yl}-(2,3,4,5-tetrahydro-1H-3-benzazepin-7-yl)-amine] | 5.00 | 6.22 |
| CN(C)C(=O)CN1CCc2ccc(Nc3nc4c(-c5cc(S(C)(=O)=O)ccc5OCC(F)F)cccn4n3)cc2CC1 [Example 373, 2-(7-{8-[2-(2,2-Difluoro-ethoxy)-5-methanesulfonyl-phenyl]-[1,2,4]triazolo[1,5-a]pyridin-2-ylamino}-1,2,4,5-tetrahydro-3-benzazepin-3-yl)-N,N-dimethyl-acetamide] | 5.00 | 6.30 |
| FC(F)(F)c1cccc(-c2cccn3nc(Nc4ccc5c(c4)CCNCC5)nc23)c1 [Example 375, (2,3,4,5-Tetrahydro-1H-3-benzazepin-7-yl)-[8-(3-trifluoromethyl-phenyl)-[1,2,4]triazolo[1,5-a]pyridin-2-yl]-amine] | 6.37 | 7.37 |
| FC(F)COc1ccc(Cl)cc1-c1cccn2nc(Nc3ccc4c(c3)CCNCC4)nc12 [Example 377, {8-[5-Chloro-(2,2-difluoro-ethoxy)-phenyl]-[1,2,4]triazolo[1,5-a]pyridin-2-yl}-(2,3,4,5-tetrahydro-1H-3-benzazepin-7-yl)-amine] | 6.35 | 7.36 |
| CN(C)C(=O)CN1CCc2ccc(Nc3nc4c(-c5cc(F)ccc5OCC(F)F)cccn4n3)cc2CC1 [Example 378, 2-(7-{8-[2-(2,2-Difluoro-ethoxy)-5-fluoro-phenyl]-[1,2,4]triazolo[1,5-a]pyridin-2-ylamino}-1,2,4,5-tetrahydro-3-benzazepin-3-yl)-N,N-dimethyl-acetamide] | 5.90 | 6.28 |
| CC(C)COc1ccc(C(F)(F)F)cc1-c1cccn2nc(Nc3ccc4c(c3)CCN(CC(=O)N(C)C)CC4)nc12 [Example 380] | 5.52 | 5.52 |
| CN(C)C(=O)N1CCc2ccc(Nc3nc4c(-c5cc(Cl)ccc5OCC(F)F)cccn4n3)cc2CC1 [Example 382, 7-{8-[5-Chloro-2-(2,2-difluoro-ethoxy)-phenyl]-[1,2,4]triazolo[1,5-a]pyridin-2-ylamino}-1,2,4,5-tetrahydro-3-benzazepine-3-carboxylic acid dimethylamide] | 5.70 | 6.70 |
| FC(F)COc1ccc(C(F)F)cc1-c1cccn2nc(Nc3ccc4c(c3)CCNCC4)nc12 [Example 384, {8-[2-(2,2-Difluoro-ethoxy)-5-difluoromethyl-phenyl]-[1,2,4]triazolo[1,5-a]pyridin-2-yl}-(2,3,4,5-tetrahydro-1H-3-benzazepin-7-yl)-amine] | 5.97 | 6.69 |
| CN(C)C(=O)CN1CCc2ccc(Nc3nc4c(-c5cc(C(F)F)ccc5OCC(F)F)cccn4n3)cc2CC1 [Example 385, 2-(7-{8-[2-(2,2-difluoro-ethoxy)-5-difluoromethyl-phenyl]-[1,2,4]triazolo[1,5-a]pyridin-2-ylamino}-1,2,4,5-tetrahydro-3-benzazepin-3-yl)-N,N-dimethyl-acetamide] | 5.95 | 6.57 |
| CN1CCN(c2cncc(Nc3nc4c(-c5ccc(S(C)(=O)=O)cc5)cccn4n3)n2)CC1 [Example 386, [8-(4-Methanesulfonyl-phenyl)-[1,2,4]triazolo[1,5-a]pyridin-2-yl]-(4-methyl-3,4,5,6-tetrahydro-2H-[1,2′]bipyrazinyl-6′-yl)-amine] | 5.00 | 7.52 |
| COc1ccccc1CNc1cccn2nc(Nc3ccc(N4CCN(C)CC4)cc3)nc12 [Example 387, N(8)-(2-Methoxy-benzyl)-N(2)-[4-(4-methyl-piperazin-1-yl)-phenyl]-[1,2,4]triazolo[1,5-a]pyridine-2,8-diamine] | 6.26 | 7.91 |
| COc1ccccc1CNc1cccn2nc(Nc3cccc(N4CCN(C)CC4)c3)nc12 [Example 388, N(8)-(2-Methoxy-benzyl)-N(2)-[3-(4-methyl-piperazin-1-yl)-phenyl]-[1,2,4]triazolo[1,5-a]pyridine-2,8-diamine] | 6.02 | 7.34 |
| CN1CCN(c2cncc(Nc3nc4c(NCc5ccccc5N(C)S(C)(=O)=O)cccn4n3)n2)CC1 [Example 389, N-Methyl-N-(2-{[2-(4-methyl-3,4,5,6-tetrahydro-2H-[1,2′]bipyrazinyl-6′-ylamino)-[1,2,4]triazolo[1,5-a]pyridin-8-ylamino]-methyl}-phenyl)-methanesulfonamide] | 5.98 | 5.19 |
| COc1cccc(CNc2cccn3nc(Nc4ccc(N5CCN(C)CC5)cc4)nc23)c1 [Example 390, N(8)-(3-Methoxy-benzyl)-N(2)-[4-(4-methyl-piperazin-1-yl)-phenyl]-[1,2,4]triazolo[1,5-a]pyridine-2,8-diamine] | 5.00 | 5.87 |
| COc1ccc(CNc2cccn3nc(Nc4ccc(N5CCN(C)CC5)cc4)nc23)cc1 [Example 391, N(8)-(4-Methoxy-benzyl)-N(2)-[4-(4-methyl-piperazin-1-yl)-phenyl]-[1,2,4]triazolo[1,5-a]pyridine-2,8-diamine] | 5.00 | 5.52 |
| COc1cccc(CNc2cccn3nc(Nc4cccc(N5CCN(C)CC5)c4)nc23)c1 [Example 392, N(8)-(3-Methoxy-benzyl)-N(2)-[3-(4-methyl-piperazin-1-yl)-phenyl]-[1,2,4]triazolo[1,5-a]pyridine-2,8-diamine] | 5.00 | 5.52 |
| COc1ccc(CNc2cccn3nc(Nc4cccc(N5CCN(C)CC5)c4)nc23)cc1 [Example 393, N(8)-(4-Methoxy-benzyl)-N(2)-[3-(4-methyl-piperazin-1-yl)-phenyl]-[1,2,4]triazolo[1,5-a]pyridine-2,8-diamine] | 5.00 | 5.00 |
| COc1cccc(CNc2cccn3nc(Nc4ccc(OC)nc4)nc23)c1 [Example 394, N(8)-(3-Methoxy-benzyl)-N(2)-(6-methoxy-pyridin-3-yl)-[1,2,4]triazolo[1,5-a]pyridine-2,8-diamine] | 5.00 | 5.00 |
| CN1CCN(c2cccc(Nc3nc4c(NCc5ccccc5F)cccn4n3)c2)CC1 [Example 395, N(8)-(2-Fluoro-benzyl)-N(2)-[3-(4-methyl-piperazin-1-yl)-phenyl]-[1,2,4]triazolo[1,5-a]pyridine-2,8-diamine] | 5.83 | 6.74 |
| CN1CCN(c2cccc(Nc3nc4c(NCc5ccc(F)cc5)cccn4n3)c2)CC1 [Example 396, N(8)-(4-Fluoro-benzyl)-N(2)-[3-(4-methyl-piperazin-1-yl)-phenyl]-[1,2,4]triazolo[1,5-a]pyridine-2,8-diamine] | 5.00 | 5.84 |
| COc1cccc(CNc2cccn3nc(Nc4ccnc(C)c4)nc23)c1 [Example 397, N(8)-(3-Methoxy-benzyl)-N(2)-(2-methyl-pyridin-4-yl)-[1,2,4]triazolo[1,5-a]pyridine-2,8-diamine] | 5.00 | 6.23 |
